“Also recorded” adds a separate entry of the source. Like-named read-outs stand apart in the source and are kept apart here. *1 amine or outer side, *2 acyl side, *3 side chain or, on linkers, in order; H or OH if unused. Where a SMILES comes first, the peptide text is derived from it. Primed or numbered codes have the meaning given here. Where no end group is shown, it is not given here. [ ]: non-standard residue; d: D form. The star is where a group is joined. Sta = CC(C)C[C@H](N)[C@@H](O)CC(=O)O; pNA = O=[N+]([O-])c1ccc(N*)cc1; Suc = O=C(CCC(=O)[*:2])[*:1]; Isovaleryl = CC(C)CC(=O)*; code Z = not defined here; βNA = c1ccc2cc(N*)ccc2c1; Bz′ = not defined here; Cbz = O=C(OCc1ccccc1)*
Assays:
[1] = tested on: proline specific peptidase (svPEP); assay: Effects of inhibitors on the activity of proline specific peptidase (svPEP), Ala-Ala-Pro-pNA as substrate; format: biochemical, S. mobaraense IFO13819; settings: for inhibition of svPEP activity (in words): Ala-Ala-Pro-pNA as substrate
[2] = tested on: proline specific peptidase (svPEP); assay: Substrate specificity of svPEP (cleaving activity on pNA-, βNA-conjugated peptides and peptides); format: biochemical, S. mobaraense IFO13819; settings: for relative activity (specificity of svPEP for peptide substrate): 20 mM sodium phosphate buffer pH 6.5, 37° C., 5 min, AAP-pNA = 100; for substrate recognition by svPEP (in words): cleavage at carboxyl terminal side of proline residue
[3] = Transglutaminase activity by hydroxamate method; format: biochemical
[4] = Enzyme properties of svPEP (optimum pH, pH stability, optimum temperature, temperature stability); format: biochemical
Description: were used as a buffer, respectively. The enzyme was allowed to act on Ala-Ala-Pro-pNA as the substrate at 30° C. for 5 minutes. Relative activity of the enzyme in each buffer was calculated compared to the activity in 20 mM sodium phosphate buffer, pH6.5 as 100%. […] (iii) pH Stability
0.15 M GTA buffers (buffers composed of 3,3-dimethylglutaric acid, tris(hydroxymethyl)aminomethane, 2-amino-2-methyl-1,3-propanediol) ranging between pH 3 and pH10 were used. To 20 µl of purified enzyme solution, 40 μl of the buffer at each pH was added and the reaction mixtures were allowed to stand overnight at 4° C., then adjusted to pH 7.0 and the volume was made up to 120 μl. To 50 μl aliquots, Ala-Ala-Pro-pNA was added and the reaction was performed at 30° C. for 5 minutes. Relative amounts of substrate which the enzyme decomposed at each pH were considered to be the remaining activity compared to the activity of the enzyme as 100% when the enzyme was stored under the same condition as described above except for pH 7.0.
To 50 μl of purified enzyme solution, 0.5 ml of 20 mM sodium phosphate buffer (pH 6.5) was added and Ala-Ala-Pro-pNA was added up to 0.25 mM and the mixture was maintained at 20° C.-60° C. for 5 minutes to effect decomposition reaction. Relative amount of substrate which the enzyme decomposed was considered to be the relative activity at each temperature, compared to the amount of substrate decomposition at 25° C. as 100% activity.
To 50 μl of purified enzyme solution, 0.5 ml of 20 mM sodium phosphate buffer (pH 6.5) was added. The mixture was maintained at 4° C. or 20° C.-60° C. for 15 minutes and then cooled on ice. Ala-Ala-Pro-pNA was added up to 0.25 mM and the mixture was maintained at 30° C. for 5 minutes. The remaining activity was calculated assuming the activity of the enzyme which was treated at 4° C. to be 100%.

[5] = Isoelectric point of svPEP; format: physicochemical
[6] = compound 1 mM, 10 min room temperature, then Ala-Ala-Pro-pNA, 30° C., 5 min, activity without compound = 100%
[7] = compound 10 mM, 10 min room temperature, then Ala-Ala-Pro-pNA, 30° C., 5 min, activity without compound = 100%

Molecule: CC(C)C[C@H](NC(=O)[C@@H](NC(=O)N[C@@H](Cc1ccccc1)C(=O)O)[C@@H]1CCN=C(N)N1)C(=O)N[C@H](C=O)Cc1ccccc1 [Chymostatin]
- relative activity [1]: 84.9%

Molecule: NC(=O)CI [Iodoacetamide]
- relative activity [1]: 87%

Molecule: Bz-Phe-Val-Arg-pNA ({Bz′}-Phe-Val-Arg-pNA) [Bz-FVR-pNA, p-nitroanilide peptide substrate]
- relative activity (specificity of svPEP for peptide substrate) [2]: 0.002%

Molecule: CC(C)C[C@H](NC(=O)[C@@H](O)[C@H](N)Cc1ccccc1)C(=O)O [Bestatin]
- relative activity [1, 6]: 97.6%

Molecule: O=C[C@@H]1CCCN1C(=O)[C@@H]1CCCN1C(=O)OCc1ccccc1 [Z-(S)Pro-(S)Prolinal] (Cbz-Pro-Pro-aldehyde)
- relative activity [1, 6]: 111.2%

Molecule: AAF-pNA (Ala-Ala-Phe-pNA) [p-nitroanilide peptide substrate for svPEP]
- relative activity (specificity of svPEP for peptide substrate) [2]: 4.1%

Molecule: PSFRAP-pNA [p-nitroanilide peptide substrate for svPEP]
- relative activity (specificity of svPEP for peptide substrate) [2]: 0.2%

Molecule: O=C(O)CN(CCN(CC(=O)O)CC(=O)O)CC(=O)O [EDTA]
- relative activity [1, 7]: 105.2%

Molecule: O=C[C@@H]1CCCN1C(=O)[C@@H]1CCCN1C(=O)OCc1ccccc1 [Z-Pro-Prolinal] (Cbz-Pro-Pro-aldehyde)
- relative activity [1, 6]: 99.7%

Molecule: Ala-Ala-Pro-pNA [AAP-pNA, p-nitroanilide peptide substrate for svPEP]
- relative activity (specificity of svPEP for peptide substrate) [2]: 100%
- substrate recognition by svPEP (in words) [2]: preferably recognized

Molecule: c1cnc2c(c1)ccc1cccnc12 [1,10-Phenanthroline]
- relative activity [1, 6]: 92.5%

Molecule: CC(C)CC(=O)N[C@H](C(=O)N[C@H](C(=O)N[C@@H](CC(C)C)[C@@H](O)CC(=O)N[C@@H](C)C(=O)N[C@@H](CC(C)C)[C@@H](O)CC(=O)O)C(C)C)C(C)C [Pepstatin] (Isovaleryl-VV[Sta]A[Sta]-OH)
- relative activity [1, 6]: 165.7%

Molecule: Phe-Arg-Ala-Pro-pNA (FRAP-pNA)
- relative activity (specificity of svPEP for peptide substrate) [2]: 49.0%
- substrate recognition by svPEP (in words) [2]: preferably recognized

Molecule: Z-GAP-βNA ({code Z}-Gly-Ala-Pro-βNA; reading uncertain; also: printed as Z-GAP-βNA) [β-naphtylamido peptide substrate for svPEP]
- relative activity (specificity of svPEP for peptide substrate) [2]: 1.2%

Molecule: CCN1C(=O)C=CC1=O [N-Ethylmaleimide]
- relative activity [1, 6]: 98.3%

Molecule: O=C(O)c1cc[c]([Hg][Cl])cc1 [p-Chloromercuribenzoic acid]
- inhibition of svPEP activity (in words) [1]: inhibited to some extent
- relative activity [1, 6]: 87.1%

Molecule: O=S(=O)(F)Cc1ccccc1 [Phenylmethylsulfonylfluoride]
- inhibition of svPEP activity (in words) ([1]; listed as phenyl methylsulfonylfluoride): comparatively strong inhibition
- inhibition of svPEP activity (in words) ([1]; listed as phenylmethylsulfonyl fluoride): inhibited
- relative activity [1, 6]: 39.7%

Molecule: AAA-pNA
- relative activity (specificity of svPEP for peptide substrate) [2]: 8.5%

Molecule: Suc-AAPF-pNA [p-nitroanilide peptide substrate for svPEP]
- relative activity (specificity of svPEP for peptide substrate) [2]: 0.01%

Molecule: Aminoethylbenzenesulfonylfluoride hydrochloride
- inhibition of svPEP activity (in words) ([1]; hydrochloride): comparatively strong inhibition; also recorded: inhibited
- relative activity ([1]; compound 4 mM, 10 min room temperature, then Ala-Ala-Pro-pNA, 30° C., 5 min, activity without compound = 100%): 59.9%

Molecule: AAPL-pNA [p-nitroanilide peptide substrate for svPEP]
- relative activity (specificity of svPEP for peptide substrate) [2]: 0.3%

Molecule: Z-AGP-βNA ({code Z}-Ala-Gly-Pro-βNA; reading uncertain; also: printed as Z-AGP-βNA) [β-naphtylamido peptide substrate for svPEP]
- relative activity (specificity of svPEP for peptide substrate) [2]: 0.78%

Molecule: p-pNA
- relative activity (specificity of svPEP for peptide substrate) [2]: 0.04%

Molecule: SFRAP-pNA [p-nitroanilide peptide substrate for svPEP]
- relative activity (specificity of svPEP for peptide substrate) [2]: 1.23%

Molecule: O[C@H](CS)[C@H](O)CS (racemic) [Dithiothreitol]
- relative activity [1, 7]: 102.5%

Molecule: O=C[C@@H]1CCCN1C(=O)[C@@H]1CCCN1C(=O)OCc1ccccc1 [Z-Pro-(S)Prolinal] (Cbz-Pro-Pro-aldehyde)
- relative activity [1, 6]: 105.8%

Molecule: Ala-Phe-Pro-pNA [AFP-pNA, p-nitroanilide peptide substrate for svPEP]
- relative activity (specificity of svPEP for peptide substrate) [2]: 26.3%
- substrate recognition by svPEP (in words) [2]: preferably recognized

B1: transglutaminase: S. mobaraense transglutaminase secreto-produced as pro-form in C. glutamicum ATCC13869, pro-structure part cleaved by protease (protein)
chain: DSDDRVTPPAEPLDRMPDPYRPSYGRAETVVNNYIRKWQQVYSHRDGRKQQMTEEQREWLSYGCVGVTWVNSGQYPTNRLAFASFDEDRFKNELKNGRPRSGETRAEFEGRVAKESFDEEKGFQRAREVASVMNRALENAHDESAYLDNLKKELANGNDALRNEDARSPFYSALRNTPSFKERNGGNHDPSRMKAVIYSKHFWSGQDRSSSADKRKYGDPDAFRPAPGTGLVDMSRDRNIPRSPTSPGEGFVNFDYGWFGAQTEADADKTVWTHGNHYHAPNGSLGAMHVYESKFRNWSEGYSDFDRGAYVITFIPKSWNTAPDKVKQGWP
modifications: Streptoverticillium mobaraense
notes: S. mobaraense transglutaminase secreto-produced as pro-form in C. glutamicum ATCC13869, pro-structure part cleaved by protease
- specific activity ([3]; after Dispase digestion (37° C., pH 7.5, 1 hour) of culture supernatant of C. glutamicum ATCC13869 harboring pVKPTG1-4 or pPKPTG1-4): about 20 U/mg
- specific activity ([3]; after Dispase digestion (37° C., pH 7.5, 1 hour) of culture supernatant of C. glutamicum harboring pVKSPTG1, pVTSPTG1, pPKSPTG1 or pPTSPTG1): about 20 U/mg
- specific activity ([3]; culture supernatant of C. glutamicum harboring pVSS1 (SAMP45) and pPKSPTG1, Phe-Arg-Ala-Pro added at N-terminal): about 20 U/mg
- specific activity ([3]; culture supernatant of C. glutamicum harboring pVSS1 and pPKSPTG11 or pPKSPTG12): about 20 U/mg
- specific activity ([3]; culture supernatant of C. glutamicum harboring pVSSSP1 (SAMP45 and svPEP) and pPKSPTG1): about 20 U/mg
- specific activity ([3]; pro-structure cleaved with culture medium of S. mobaraense IFO13819, 30° C., 6 hours): about 20 U/mg
- specific activity ([3]; pro-structure cleaved with washed cells of S. mobaraense, 30° C., 6 hours): about 20 U/mg

B2: svPEP: proline-specific peptidase produced by S. mobaraense IFO13819; mature sequence SEQ ID NO:40 (protein)
chain: QADIKDRILKIPGMKFVEEKPYQGYRYLVMTYRQPVDHRNPGKGTFEQRFTLLHKDTDRPTVFFTSGYNVSTNPSRSEPTRIVDGNQVSMEYRFFTPSRPQPADWSKLDIWQAASDQHRLYQALKPVYGKNWLATGGSKGGMTATYFRRFYPNDMNGTVAYVAPNDVNDKEDSAYDKFFQNVGDKACRTQLNSVQREALVRRDEIVARYEKWAKENGKTFKVVGSADKAYENVVLDLVWSFWQYHLQSDCASVPATKASTDELYKFIDDISGFDGYTDQGLERFTPYYYQAGTQLGAPTVKNPHLKGVLRYPGINQPRSYVPRDIPMTFRPGAMADVDRWVREDSRNMLFVYGQNDPWSGEPFRLGKGAAARHDYRFYAPGGNHGSNIAQLVADERAKATAEVLKWAGVAPQAVQKDEKAAKPLAPFDAKLDRVKNDKQSALRP
modifications: Streptoverticillium mobaraense
- optimum pH ([4]; Ala-Ala-Pro-pNA, 30° C., 5 min): 6.0-6.5
- pH stability (stable at pH) ([4]; overnight at 4° C. in 0.15 M GTA buffers pH 3 to 10): 4-9
- optimum temperature ([4]; pH 6.5, 20° C.-60° C., 5 min): 25-30 °C
- temperature stability (stable below) ([4]; pH 6.5, 15 min at 4° C. or 20° C.-60° C.): below 20 °C
- isoelectric point [5]: 10.2

Source: patent US7972829B2, “Process for producing transglutaminase” (Ajinomoto Co., Inc., priority 1999, dated 2011)
